Columns and labels:
[1] = system: croton oil-induced irritant contact dermatitis (ICD) in mice ears; experiment: Croton oil-induced irritant contact dermatitis (ICD) model, ear swelling; format: in vivo, Balb/c female mice
[2] = system: Bombyx mori (silkworm) ovary-derived cultured cell line cells; conditions: reported in the literature; cited from earlier work
[3] = cited from earlier work
[4] = system: S. aureus; experiment: Bacterial growth curves (OD, 96-well plate, 24 h); format: cell-based, Staphylococcus aureus
Procedure: (§1) The anti-bacterial effect of zinc-nocardamine was assessed on the following types of pathogenic bacteria: E. coli (Gram-negative), P. aeruginosa (Gram-negative) and S. aureus (Gram-positive) (isolated in Hadassah-Ein Karem Hospital). More specifically, the experiment was performed as following: Each bacterial strain was grown overnight at 37° C., under aeration of 200 rpm, in the appropriate medium (EPEC (E. coli)) and P. aeruginosa in LB broth, S. aureus in BHI broth. Both media were purchased from BD (NJ, USA). Series of three-fold consecutive dilutions were performed in a 96-well plate, and bacteria were then added to the wells at a final OD600 of 0.01. The experiments with all three strains were performed in duplicate. […] Then the plate was incubated in a plate reader for 24 h, and the kinetics of OD measurements were recorded every 20 minutes by Eon plate reader (BioTek, VE, USA). […]
(§2) The anti-bacterial effect of zinc-nocardamine was assessed on the following types of pathogenic bacteria: E. coli (Gram-negative), P. aeruginosa (Gram-negative) and S. aureus (Gram-positive) (isolated in Hadassah-Ein Karem Hospital). […] The plate was then incubated in a plate reader for 24 h, and the kinetics of OD measurements were recorded, every 20 minutes. […]

[5] = system: S. aureus; experiment: Bactericidal activity (bacterial viability) on Petri dishes; format: cell-based, Staphylococcus aureus; conditions: 5 mg/ml (FIG. 9C)
Procedure: (§3) The concentrations of zinc-nocardamine, in four quadrants (1-4) of a Petri dish, were set as follows: 1-0 mg/ml; 2-5 mg/ml; 3-1.7 mg/ml; 4-0.5 mg/ml.
(§4) The anti-bacterial effect of zinc-nocardamine was assessed on the following types of pathogenic bacteria: E. coli (Gram-negative), P. aeruginosa (Gram-negative) and S. aureus (Gram-positive) (isolated in Hadassah-Ein Karem Hospital). More specifically, the experiment was performed as following: Each bacterial strain was grown overnight at 37° C., under aeration of 200 rpm, in the appropriate medium (EPEC (E. coli)) and P. aeruginosa in LB broth, S. aureus in BHI broth. Both media were purchased from BD (NJ, USA). Series of three-fold consecutive dilutions were performed in a 96-well plate, and bacteria were then added to the wells at a final OD600 of 0.01. The experiments with all three strains were performed in duplicate. Zinc-nocardamine 10 mg/ml aqueous solution was prepared in advance; prior to the experiment it was diluted in the appropriate media in a ratio of 1:2, to obtain a stock concentration of 5 mg/ml. This stock was further diluted to 1.7, 0.5, 0.18, 0.06, 0.02, 0.002, 0.0007, and 0.0002 mg/ml and added to appropriate wells. Then the plate was incubated in a plate reader for 24 h, and the kinetics of OD measurements were recorded every 20 minutes by Eon plate reader (BioTek, VE, USA). […]

[6] = system: TNF-α; experiment: TNF-α level in ear tissue of ICD mice (ELISA); format: in vivo, Balb/c female mice; conditions: t=6 h after croton oil, 0.5% ointment (FIG. 6C)
Procedure: (§5) The samples were homogenized, and protein concentration was measured by Bradford procedure. The concentration of cytokines was determined by ELISA method, using commercially available kits according to the Manufacturer's protocols (RayBiotech, GA, USA).
(§6) In order to study the underlying mechanism of the zinc-nocardamine complex, its assumed anti-inflammatory activity was tested by measuring the concentrations of various pro-inflammatory cytokines, in the ears, along the experimental protocol, specifically, IL-1α, IL-6, IL-17 and TNF-α. The concentration of these cytokines were measured in ear tissue that had been exposed to croton oil (at t=0) and was left untreated to t=6 h. The concentration was compared to the concentrations at t=6 h, in ears which were exposed at t=0, and treated with the complex at t=3 h.
(§7) The effect of ICD-induced inflammatory process on the concentration of IL-1α, IL-6, TNF-α and IL-17 within the ear tissue is shown in FIG. 6A-6D. […] The concentration of the cytokines was determined by ELISA method, using commercially available kits, according to the Manufacturer protocol (RayBiotech, GA, USA)

[7] = system: P. aeruginosa; experiment: Bactericidal activity (bacterial viability) on Petri dishes; format: cell-based, Pseudomonas aeruginosa; conditions: 5 mg/ml (FIG. 9B)
Procedure: as §3, §4

[8] = system: IL-13; experiment: IL-13 level in ear tissue of ICD mice (ELISA); format: in vivo, Balb/c female mice; conditions: 0.5% ointment at t=3 h, measured at t=6 h (FIG. 7)
Procedure: as §5
The assumed anti-inflammatory activity of the zinc-nocardamine complex was tested by measuring the concentrations of various anti-inflammatory cytokines, specifically, IL-4, IL-10 and IL-13, in ear tissue of mice. The concentrations of these cytokines were measured and their pattern of change along the experiment was compared for each: at baseline t=0 (no exposure), at t=3 h after exposure to croton oil, at t=6 h after exposure to croton oil, and at 6 h after exposure to croton oil where these ears had been treated with the zinc-nocardamine complex at t=3 h after the exposure to the croton oil. […] The concentration of the cytokines was determined by ELISA method, using commercially available ELISA kits, according to the Manufacturer protocol (RayBiotech, GA, USA; Diaclone, Besançon, France).

[9] = system: E. coli; experiment: Bactericidal activity (bacterial viability) on Petri dishes; format: cell-based, Escherichia coli; conditions: 5 mg/ml (FIG. 9A)
Procedure: as §3, §4

[10] = system: E. coli (EPEC); experiment: Bacterial growth curves (OD, 96-well plate, 24 h); format: cell-based, Escherichia coli; conditions: 1.7 mg/ml (FIG. 8A)
Procedure: as §1, §2

[11] = system: IL-1α; experiment: IL-1α level in ear tissue of ICD mice (ELISA); format: in vivo, Balb/c female mice; conditions: t=6 h after croton oil, 0.5% ointment (FIG. 6A)
Procedure: as §5, §6, §7

[12] = system: P. aeruginosa; experiment: Bacterial growth curves (OD, 96-well plate, 24 h); format: cell-based, Pseudomonas aeruginosa; conditions: 1.7 mg/ml (FIG. 8B)
Procedure: as §1, §2

[13] = system: IL-6; experiment: IL-6 level in ear tissue of ICD mice (ELISA); format: in vivo, Balb/c female mice; conditions: t=6 h after croton oil, 0.5% ointment (FIG. 6B)
Procedure: as §5, §6, §7

[14] = system: IL-17; experiment: IL-17 level in ear tissue of ICD mice (ELISA); format: in vivo, Balb/c female mice; conditions: t=6 h after croton oil, 0.5% ointment (FIG. 6D)
Procedure: as §5, §6, §7

For O=C1CCC(=O)N(O)CCCCCNC(=O)CCC(=O)N(O)CCCCCNC(=O)CCC(=O)N(O)CCCCCN1 [nocardamine], the “recovery from ICD versus untreated and zinc-nocardamine groups” value ([1]; 0.5% w/w ointment applied 3 h after croton oil (FIG. 2B)) is listed as “recovered better than the untreated ones, their recovery was much slower than the recovery observed in mice that received zinc-nocardamine complex”, the “change of cell morphology” value [2] is listed as “change the morphology of insect Bombyx mori (silkworm) ovary-derived cultured cell line cells into spindle-like configuration” and the “water solubility (description)” value [3] is listed as “soluble in water with heating”.

For CC(=O)N(O)CCCCCNC(=O)CCC(=O)N(O)CCCCCNC(=O)CCC(=O)N(O)CCCCCN [desferrioxamine B], the water solubility [3] is listed as “about 50 mg/ml”.

In the case of zinc-nocardamine complex, the “optimal concentration in Vaseline-based ointment” value ([1]; dose-response 0.1, 0.2, 0.5%, applied 3 h after irritant (FIG. 3)) is reported as 0.5%, the “growth inhibition of S. aureus” value ([4]; 0.5 mg/ml (FIG. 8C)) is reported as “growth inhibition was observed” and the “growth inhibition of S. aureus” value ([4]; 1.7 mg/ml (FIG. 8C)) is reported as “growth inhibition was observed”. For the same compound, the “bactericidal activity on S. aureus” value [5] was “bactericidal activity was obtained”, the “concentration of TNF-α in ear tissue” value [6] was “reduced the concentration of the cytokines to nearly the basal level” and the “bactericidal activity on P. aeruginosa” value [7] was “bactericidal activity was obtained”. The “IL-13 level in ear tissue” value [8] was “restoring the IL-13 level back to its baseline level”, the “bactericidal activity on E. coli” value [9] was “bactericidal activity was obtained” and the “growth inhibition of E. coli” value [10] was “growth inhibition was observed”. For the same compound, the “concentration of IL-1α in ear tissue” value [11] was “reduced the concentration of the cytokines to nearly the basal level”, the “growth inhibition of P. aeruginosa” value [12] was “mild inhibition” and the “concentration of IL-6 in ear tissue” value [13] was “reduced the concentration of the cytokines to nearly the basal level”. For the same compound, the “concentration of IL-17 in ear tissue” value [14] was “reduced the concentration of the cytokines to nearly the basal level”.
